System: rodent lifetime carcinogenesis bioassay, tumor incidence TD50
Experiment: chronic cancer bioassays in animals – CPDB, compiled studies (AID 1745844)
Conditions: in drinking water

Cc1cc(-c2ccc(N)c(C)c2)ccc1N
TD50 (mouse, strain BALB/cStCrlfC3Hf/Nctr, females, site: lung, lesion: adenocarcinoma, dosed 52 weeks, study length 52 weeks): 147 mg/kg/day | TD50 (mouse, strain BALB/cStCrlfC3Hf/Nctr, females, site: lung, lesion: adenocarcinoma, dosed 78 weeks, study length 78 weeks): 168 mg/kg/day | TD50 (mouse, strain BALB/cStCrlfC3Hf/Nctr, females, site: lung, lesion: several types, types named in the paper, dosed 52 weeks, study length 52 weeks): 28.1 mg/kg/day | TD50 (mouse, strain BALB/cStCrlfC3Hf/Nctr, females, site: lung, lesion: several types, types named in the paper, dosed 78 weeks, study length 78 weeks): 295 mg/kg/day | TD50 (mouse, strain BALB/cStCrlfC3Hf/Nctr, males, site: lung, lesion: adenocarcinoma, dosed 52 weeks, study length 52 weeks): 123 mg/kg/day | TD50 (mouse, strain BALB/cStCrlfC3Hf/Nctr, males, site: lung, lesion: adenocarcinoma, dosed 112 weeks, study length 112 weeks): 50.1 mg/kg/day | TD50 (mouse, strain BALB/cStCrlfC3Hf/Nctr, males, site: lung, lesion: several types, types named in the paper, dosed 52 weeks, study length 52 weeks): 684 mg/kg/day | TD50 (mouse, strain BALB/cStCrlfC3Hf/Nctr, males, site: lung, lesion: several types, types named in the paper, dosed 78 weeks, study length 78 weeks): 423 mg/kg/day | TD50 (mouse, strain BALB/cStCrlfC3Hf/Nctr, males, site: lung, lesion: several types, types named in the paper, dosed 112 weeks, study length 112 weeks): 28.6 mg/kg/day | TD50 (rat, strain Fischer 344, females, site: Zymbal's gland, lesion: adenoma + adenoma, bilateral + carcinoma + carcinoma, bilateral, dosed 60 weeks, study length 60 weeks): 1.27 mg/kg/day | TD50 (rat, strain Fischer 344, females, site: Zymbal's gland, lesion: adenoma + adenoma, bilateral, dosed 60 weeks, study length 60 weeks): 3.08 mg/kg/day | TD50 (rat, strain Fischer 344, females, site: Zymbal's gland, lesion: carcinoma + carcinoma, bilateral, dosed 60 weeks, study length 60 weeks): 2 mg/kg/day | TD50 (rat, strain Fischer 344, females, site: all sites, lesion: mononuclear-cell leukemia, dosed 60 weeks, study length 60 weeks): 6.46 mg/kg/day | TD50 (rat, strain Fischer 344, females, site: any site (literature study), lesion: several types, types named in the paper, dosed 60 weeks, study length 60 weeks): 0.462 mg/kg/day | TD50 (rat, strain Fischer 344, females, site: brain, lesion: astrocytoma, malignant + malignant glioma + meningioma, malignant, dosed 60 weeks, study length 60 weeks): 15.4 mg/kg/day | TD50 (rat, strain Fischer 344, females, site: clitoral gland + colon + duodenum + ileum + jejunum + liver + lung + mammary gland + pharynx + rectum + skin + tongue + Zymbal's gland, lesion: adenoma + adenoma, bilateral + carcinoma + carcinoma, bilateral + adenocarcinoma + adenomatous polyp + mucinous adenocarcinoma + mucin, dosed 60 weeks, study length 60 weeks): 0.418 mg/kg/day | TD50 (rat, strain Fischer 344, females, site: clitoral gland, lesion: adenoma + adenoma, bilateral + carcinoma + carcinoma, bilateral, dosed 60 weeks, study length 60 weeks): 0.847 mg/kg/day | TD50 (rat, strain Fischer 344, females, site: clitoral gland, lesion: adenoma + adenoma, bilateral, dosed 60 weeks, study length 60 weeks): 1.31 mg/kg/day | TD50 (rat, strain Fischer 344, females, site: clitoral gland, lesion: carcinoma + carcinoma, bilateral, dosed 60 weeks, study length 60 weeks): 2.58 mg/kg/day | TD50 (rat, strain Fischer 344, females, site: colon + rectum, lesion: adenocarcinoma + adenomatous polyp, dosed 60 weeks, study length 60 weeks): 6.65 mg/kg/day | TD50 (rat, strain Fischer 344, females, site: colon + rectum, lesion: adenomatous polyp, dosed 60 weeks, study length 60 weeks): 7.11 mg/kg/day | TD50 (rat, strain Fischer 344, females, site: duodenum + ileum + jejunum, lesion: adenocarcinoma + adenomatous polyp + mucinous adenocarcinoma + mucinous cystadenocarcinoma, dosed 60 weeks, study length 60 weeks): 11 mg/kg/day | TD50 (rat, strain Fischer 344, females, site: duodenum + ileum + jejunum, lesion: adenocarcinoma + mucinous adenocarcinoma + mucinous cystadenocarcinoma, dosed 60 weeks, study length 60 weeks): 15.4 mg/kg/day | TD50 (rat, strain Fischer 344, females, site: liver, lesion: hepatocellular adenoma + hepatocellular carcinoma + neoplastic nodule, dosed 60 weeks, study length 60 weeks): 6.97 mg/kg/day | TD50 (rat, strain Fischer 344, females, site: liver, lesion: hepatocellular carcinoma + neoplastic nodule, dosed 60 weeks, study length 60 weeks): 6.97 mg/kg/day | TD50 (rat, strain Fischer 344, females, site: liver, lesion: neoplastic nodule, dosed 60 weeks, study length 60 weeks): 7.62 mg/kg/day | TD50 (rat, strain Fischer 344, females, site: lung, lesion: alveolar/bronchiolar adenoma + alveolar/bronchiolar carcinoma, dosed 60 weeks, study length 60 weeks): 11.9 mg/kg/day | TD50 (rat, strain Fischer 344, females, site: lung, lesion: alveolar/bronchiolar adenoma, dosed 60 weeks, study length 60 weeks): 13.6 mg/kg/day | TD50 (rat, strain Fischer 344, females, site: mammary gland, lesion: adenocarcinoma + fibroadenoma, dosed 60 weeks, study length 60 weeks): 5.77 mg/kg/day | TD50 (rat, strain Fischer 344, females, site: mammary gland, lesion: adenocarcinoma, dosed 60 weeks, study length 60 weeks): 8.33 mg/kg/day | TD50 (rat, strain Fischer 344, females, site: pharynx + tongue, lesion: squamous-cell carcinoma + squamous-cell papilloma, dosed 60 weeks, study length 60 weeks): 3.2 mg/kg/day | TD50 (rat, strain Fischer 344, females, site: pharynx + tongue, lesion: squamous-cell carcinoma, dosed 60 weeks, study length 60 weeks): 11.8 mg/kg/day | TD50 (rat, strain Fischer 344, females, site: pharynx + tongue, lesion: squamous-cell papilloma, dosed 60 weeks, study length 60 weeks): 4.26 mg/kg/day | TD50 (rat, strain Fischer 344, females, site: skin, lesion: basal-cell adenoma + basal-cell carcinoma, dosed 60 weeks, study length 60 weeks): 3.8 mg/kg/day | TD50 (rat, strain Fischer 344, females, site: skin, lesion: basal-cell adenoma, dosed 60 weeks, study length 60 weeks): 5.77 mg/kg/day | TD50 (rat, strain Fischer 344, females, site: skin, lesion: basal-cell carcinoma, dosed 60 weeks, study length 60 weeks): 11.6 mg/kg/day | TD50 (rat, strain Fischer 344, females, site: skin, lesion: squamous-cell carcinoma + squamous-cell papilloma, dosed 60 weeks, study length 60 weeks): 3.17 mg/kg/day | TD50 (rat, strain Fischer 344, females, site: skin, lesion: squamous-cell carcinoma, dosed 60 weeks, study length 60 weeks): 5.56 mg/kg/day | TD50 (rat, strain Fischer 344, females, site: skin, lesion: squamous-cell papilloma, dosed 60 weeks, study length 60 weeks): 7.06 mg/kg/day | TD50 (rat, strain Fischer 344, males, site: Zymbal's gland, lesion: adenoma + adenoma, bilateral + carcinoma + carcinoma, bilateral, dosed 58 weeks, study length 60 weeks): 1.12 mg/kg/day | TD50 (rat, strain Fischer 344, males, site: Zymbal's gland, lesion: adenoma + adenoma, bilateral, dosed 58 weeks, study length 60 weeks): 2.38 mg/kg/day | TD50 (rat, strain Fischer 344, males, site: Zymbal's gland, lesion: carcinoma + carcinoma, bilateral, dosed 58 weeks, study length 60 weeks): 1.93 mg/kg/day | TD50 (rat, strain Fischer 344, males, site: adrenal medulla, lesion: pheochromocytoma, benign, dosed 58 weeks, study length 60 weeks): 10.6 mg/kg/day | TD50 (rat, strain Fischer 344, males, site: any site (literature study), lesion: several types, types named in the paper, dosed 58 weeks, study length 60 weeks): 0.334 mg/kg/day | TD50 (rat, strain Fischer 344, males, site: brain, lesion: glioma malignant, focal, mild + malignant glioma + meningioma, malignant, dosed 58 weeks, study length 60 weeks): 26.1 mg/kg/day | TD50 (rat, strain Fischer 344, males, site: cecum + colon + duodenum + ileum + jejunum + large intestine + liver + lung + multiple organs + pharynx + preputial gland + rectum + skin + tongue, lesion: adenomatous polyp + adenocarcinoma + mucinous cystadenocarcinoma + hepatocellular carcinoma + neoplastic nodule + alveolar/bronchi, dosed 58 weeks, study length 60 weeks): 0.346 mg/kg/day | TD50 (rat, strain Fischer 344, males, site: cecum + colon + large intestine + rectum, lesion: adenomatous polyp + adenocarcinoma + mucinous cystadenocarcinoma, dosed 58 weeks, study length 60 weeks): 3.76 mg/kg/day | TD50 (rat, strain Fischer 344, males, site: cecum + colon + rectum, lesion: adenomatous polyp, dosed 58 weeks, study length 60 weeks): 4.87 mg/kg/day | TD50 (rat, strain Fischer 344, males, site: colon + large intestine + rectum, lesion: adenocarcinoma + mucinous cystadenocarcinoma, dosed 58 weeks, study length 60 weeks): 14.4 mg/kg/day | TD50 (rat, strain Fischer 344, males, site: duodenum + ileum + jejunum, lesion: mucinous cystadenocarcinoma + adenocarcinoma + adenomatous polyp, dosed 58 weeks, study length 60 weeks): 6.99 mg/kg/day | TD50 (rat, strain Fischer 344, males, site: duodenum + ileum + jejunum, lesion: mucinous cystadenocarcinoma + adenocarcinoma, dosed 58 weeks, study length 60 weeks): 7.79 mg/kg/day | TD50 (rat, strain Fischer 344, males, site: liver, lesion: hepatocellular adenoma + hepatocellular carcinoma + neoplastic nodule, dosed 58 weeks, study length 60 weeks): 0.898 mg/kg/day | TD50 (rat, strain Fischer 344, males, site: liver, lesion: hepatocellular carcinoma + neoplastic nodule, dosed 58 weeks, study length 60 weeks): 0.898 mg/kg/day | TD50 (rat, strain Fischer 344, males, site: liver, lesion: hepatocellular carcinoma, dosed 58 weeks, study length 60 weeks): 2.76 mg/kg/day | TD50 (rat, strain Fischer 344, males, site: liver, lesion: neoplastic nodule, dosed 58 weeks, study length 60 weeks): 1.12 mg/kg/day | TD50 (rat, strain Fischer 344, males, site: lung, lesion: alveolar/bronchiolar adenoma + alveolar/bronchiolar carcinoma, dosed 58 weeks, study length 60 weeks): 4.93 mg/kg/day | TD50 (rat, strain Fischer 344, males, site: lung, lesion: alveolar/bronchiolar adenoma, dosed 58 weeks, study length 60 weeks): 5.47 mg/kg/day | TD50 (rat, strain Fischer 344, males, site: multiple organs, lesion: mesothelioma, malignant, dosed 58 weeks, study length 60 weeks): 9.45 mg/kg/day | TD50 (rat, strain Fischer 344, males, site: pharynx + tongue, lesion: squamous-cell carcinoma + squamous-cell papilloma, dosed 58 weeks, study length 60 weeks): 8.47 mg/kg/day | TD50 (rat, strain Fischer 344, males, site: pharynx + tongue, lesion: squamous-cell carcinoma, dosed 58 weeks, study length 60 weeks): 26.7 mg/kg/day | TD50 (rat, strain Fischer 344, males, site: preputial gland, lesion: adenoma + carcinoma, dosed 58 weeks, study length 60 weeks): 3.96 mg/kg/day | TD50 (rat, strain Fischer 344, males, site: preputial gland, lesion: adenoma, dosed 58 weeks, study length 60 weeks): 4.94 mg/kg/day | TD50 (rat, strain Fischer 344, males, site: skin, lesion: basal-cell adenoma + basal-cell carcinoma, dosed 58 weeks, study length 60 weeks): 0.5 mg/kg/day | TD50 (rat, strain Fischer 344, males, site: skin, lesion: basal-cell adenoma, dosed 58 weeks, study length 60 weeks): 0.534 mg/kg/day | TD50 (rat, strain Fischer 344, males, site: skin, lesion: basal-cell carcinoma, dosed 58 weeks, study length 60 weeks): 8.85 mg/kg/day | TD50 (rat, strain Fischer 344, males, site: skin, lesion: keratoacanthoma, dosed 58 weeks, study length 60 weeks): 4.58 mg/kg/day | TD50 (rat, strain Fischer 344, males, site: skin, lesion: sebaceous adenoma, dosed 58 weeks, study length 60 weeks): 5.62 mg/kg/day | TD50 (rat, strain Fischer 344, males, site: skin, lesion: squamous-cell carcinoma + squamous-cell papilloma, dosed 58 weeks, study length 60 weeks): 1.55 mg/kg/day | TD50 (rat, strain Fischer 344, males, site: skin, lesion: squamous-cell carcinoma, dosed 58 weeks, study length 60 weeks): 2.8 mg/kg/day | TD50 (rat, strain Fischer 344, males, site: skin, lesion: squamous-cell papilloma, dosed 58 weeks, study length 60 weeks): 3.28 mg/kg/day

O=NN1CCOC1=O
TD50 (rat, strain MRC-Wistar, males, site: any site (literature study), lesion: one or several types, types not named, dosed 70 weeks, study length 70 weeks): 0.335 mg/kg/day | carcinogen call (rat, strain MRC-Wistar, males, site: intestine, lesion: several types, types named in the paper, dosed 64 weeks, study length 64 weeks): positive | TD50 (rat, strain MRC-Wistar, males, site: intestine, lesion: several types, types named in the paper, dosed 70 weeks, study length 70 weeks): 0.729 mg/kg/day | TD50 (rat, strain MRC-Wistar, males, site: liver, lesion: several types, types named in the paper, dosed 64 weeks, study length 64 weeks): 0.582 mg/kg/day | TD50 (rat, strain MRC-Wistar, males, site: liver, lesion: several types, types named in the paper, dosed 70 weeks, study length 70 weeks): 1.15 mg/kg/day

Reference: PubChem BioAssay AID1745844 (Carcinogenic Potency Database (CPDB), 2022)
